Reference: PubChem BioAssay AID844 (SRMLSC, 2007)
Activity calls are given as the source filed them. How the calls were made is not given here.

Key:
[1] = doxorubicin EC50 increase in MRP-1 cells, dose response, cell-based, doxorubicin EC50 shift (AID 844); settings: MRP1 cells, doxorubicin viability shift, 10 uM compound; at 100 µM (top of the series);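 on viability: tested at 10 µM; plate controls were cells with vehicle for no effect and cells with cytotoxic drug for full effect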
[2] = system: MRP1 cells, doxorubicin viability shift, 10 uM compound; test: as above; settings: for EC50: measured here: doxorubicin EC50 with compound

Row | SMILES | viability [1] | EC50 [2] | fold increase in Dox EC50 [2]
1 | Cc1cc(N/N=C/c2ccc(O)cc2O)nc(-n2nc(C)cc2C)n1 | 15.5% (inactive) | < 0.195 µM | 
2 | NC1C2CN(c3nc4c(cc3F)c(=O)c(C(=O)O)cn4-c3ccc(F)cc3F)CC12 (stereo unspecified) | 17.6% (inactive) | < 0.195 µM | 
3 | COc1cc(C2Nc3cccc4cccc(c34)N2)cc(OC)c1O | 1.31% (inactive) | < 0.195 µM | 
4 | CCOC(=O)c1c(CSC(=N)N)n(-c2ccc(C)cc2)c2cc(Br)c(OC(C)=O)cc12 | 0.37% (inactive) | < 0.195 µM | 
5 | Oc1ccc(-c2nc(-c3ccc(O)c(O)c3)cs2)cc1 | 1.94% (inactive) | < 0.195 µM | 
6 | NS(=O)(=O)c1ccc(N=Nc2c(-c3ccccc3)[nH]n(-c3nc(-c4ccccc4)cs3)c2=O)cc1 | 8.13% (inactive) | < 0.195 µM | 
7 | N=C(N)SCc1ccc(Cl)cc1Cl | 10.9% (inactive) | < 0.195 µM | 
8 | Cc1ccc(N/N=C(\C#N)C(=N)N2CCOCC2)cc1 |  | 4.95 µM | 0.92 (inactive)
9 | CC(NC(=O)c1ccc(Br)cc1)c1ccc2c(c1)CCCC2 (stereo unspecified) |  | 7.33 µM | 1.36 (inactive)
10 | COc1ccc(NS(=O)(=O)c2cc(NC(=O)CNC(=O)c3ccc(C)s3)ccc2Cl)cc1 |  | 7.78 µM | 1.44 (inactive)
11 | COc1cccc(/C=N/NC(=O)c2cc(-c3cccn3C)n[nH]2)c1O | 9.49% (inactive) | < 0.195 µM | 
12 | Cc1nc(=O)c(-c2ccccc2)c(C)n1-c1ccc(S(N)(=O)=O)cc1 |  | 8.25 µM | 1.53
13 | CCc1ccc(-c2nc(-c3ccncc3)no2)cc1 |  | 4.82 µM | 0.89 (inactive)
14 | CCN(Cc1ccccc1)C(=O)CSc1nc(C)cc(C)c1C#N |  | 3.19 µM | 0.59 (inactive)
15 | Cc1ccc(S(=O)(=O)N/N=C\c2cn(-c3ccccc3)nc2-c2ccccc2)cc1 |  | 7.44 µM | 1.38 (inactive)
16 | CCSc1nnc(-c2ccc(C)cc2)c2ccccc12 |  | 3.3 µM | 0.61 (inactive)
17 | Cc1ccc(CCNC(=O)C2CCCN2S(=O)(=O)c2ccc3c(c2)CCC(=O)N3)cc1 (stereo unspecified) |  | 3.46 µM | 0.64 (inactive)
18 | COC1(OC)C(=N/O)/C(=N\O)CCC1O (stereo unspecified) |  | 4.16 µM | 0.77 (inactive)
19 | COc1cc(SC)ccc1C(=O)NCCOc1ccc(Cl)cc1 |  | 7.36 µM | 1.36 (inactive)
20 | O=C(Nc1nc(-c2cccc([N+](=O)[O-])c2)cs1)C(c1ccccc1)c1ccccc1 |  | 9.1 µM | 1.69
21 | N=C(N)SCc1ccccn1 |  | 2.9 µM | 0.54 (inactive)
22 | c1ccc(-n2ncc3c(NCc4cccnc4)ncnc32)cc1 |  | 3.09 µM | 0.57 (inactive)
23 | Cc1ccc(C(c2nnnn2CS(=O)(=O)c2ccc(C)cc2)N2CCN(c3ncccn3)CC2)cc1 (stereo unspecified) |  | 2.58 µM | 0.48 (inactive)
24 | N#Cc1nc(COc2cccc(Cl)c2)oc1N1CCCC1 |  | 5.04 µM | 0.93 (inactive)
25 | N=C(N)SCc1ccccc1Cl |  | 2.25 µM | 0.42 (inactive)
26 | Cc1nc(=O)c(-c2ccccc2)c(C)n1-c1cccc(C(=O)O)c1 |  | 6.82 µM | 1.26 (inactive)
27 | CCOc1ccc(-c2nc(C#N)c(NCC(C)C)o2)cc1 |  | 6.4 µM | 1.19 (inactive)
28 | Cc1nc(/N=C(\N)NC(=O)N2c3ccccc3Sc3ccccc32)nc2ccccc12 |  | 5.12 µM | 0.95 (inactive)
